Laboratory results: publication PMC8600920 (Antiviral Research, 2021)

How the values were obtained:
HCoV-NL63 = HCoV-NL63 cytopathic effects; format: cell-based; details: Human coronavirus NL63, LLC-MK2, 120 h, read-out: Anti-HCoV-NL63 (EC50/μM)
in vitro = details: human
HCoV-OC43 = HCoV-OC43 cytopathic effects; format: cell-based; details: Betacoronavirus 1, OC43, HCT-8, 120 h, read-out: Anti-HCoV-OC43 (EC50/μM)

SMILES: CCC(CC)COC(=O)[C@H](C)N[P@](=O)(OC[C@H]1O[C@@](C#N)(c2ccc3c(N)ncnn23)[C@H](O)[C@@H]1O)Oc1ccccc1 [Remdesivir]
- EC50 (HCoV-NL63): 2.89 µM
- CC50 (in vitro): > 100000 nM
- EC50 (HCoV-OC43): 0.82 µM
